Measured values: patent US9745299B2, “Substituted tricyclic benzimidazoles as kinase inhibitors” (SELVITA SA, priority 2012, dated 2017)
Where a name gives a salt, the structure may show the parent alone.

Test system: HCT116 cells
Assay: Combination with Oxaliplatin, MTS cell viability assay, Chou-Thalay method
Format: cell-based, human
Description: Various well-accepted models exist for determination of synergistic and additive effect for two or more drugs in combination. As a matter of example combination index CI can be used as a quantitative measure of the degree of drug interaction in terms of synergism, additive effects and antagonism for a given endpoint of the measurement:
Synergism (C<1) greater than expected additive effect
Additive effect (CI=1) the combined effect predicted by the mass-action law principle in the absence of synergism or antagonism
Antagonism (CI>1) Smaller than expected additive effect
In the present example, the drug interactions between compound “Example 6” and Oxaliplatin which is a platinum-based type of anticancer chemotherapy medicine used to treat colorectal cancer were tested in HCT116 cells. Experimental data points in the MTS cell viability assay were spread for Oxaliplatin below and above the ED50 values in HCT116 cells, whereas concentration of the tested compounds was close to the apparent ED50. Chou-Thalay method for quantification of synergy was applied [Chou et al. Cancer Res. 15; 70(2):440-6, (2010)].

Compound: Brc1c(Br)c2c3c(nc(N4CCNCC4)n3CCC2)c1Br [Example 6, 7,8,9-tribromo-2-(piperazin-1-yl)-5,6-dihydro-4H-imidazo[4,5,1-ij]quinoline maleate]
- Combination Index (CI) (Example 6 0.6 μM + Oxaliplatin 0.0010 μM): 1.15
- Combination Index (CI) (Example 6 0.6 μM + Oxaliplatin 0.01 μM): 0.99
- Combination Index (CI) (Example 6 0.6 μM + Oxaliplatin 0.1 μM): 1.11
- Combination Index (CI) (Example 6 0.6 μM + Oxaliplatin 1.0 μM): 0.69
- Combination Index (CI) (Example 6 0.6 μM + Oxaliplatin 2.5 μM): 0.38
- Combination Index (CI) (Example 6 0.6 μM + Oxaliplatin 5.0 μM): 0.29
